Target: T1, GCS enzyme contained within Golgi preparations isolated from human A375 malignant melanoma skin cells (Homo sapiens, UniProt Q16739)
T1 construct: endogenous levels of GCS enzyme contained within Golgi preparations isolated from human A375 malignant melanoma skin cells; endogenous in cells; host or cells: A375 human malignant melanoma cells (crude Golgi preparation)
T1 sequence (Q16739 1-394): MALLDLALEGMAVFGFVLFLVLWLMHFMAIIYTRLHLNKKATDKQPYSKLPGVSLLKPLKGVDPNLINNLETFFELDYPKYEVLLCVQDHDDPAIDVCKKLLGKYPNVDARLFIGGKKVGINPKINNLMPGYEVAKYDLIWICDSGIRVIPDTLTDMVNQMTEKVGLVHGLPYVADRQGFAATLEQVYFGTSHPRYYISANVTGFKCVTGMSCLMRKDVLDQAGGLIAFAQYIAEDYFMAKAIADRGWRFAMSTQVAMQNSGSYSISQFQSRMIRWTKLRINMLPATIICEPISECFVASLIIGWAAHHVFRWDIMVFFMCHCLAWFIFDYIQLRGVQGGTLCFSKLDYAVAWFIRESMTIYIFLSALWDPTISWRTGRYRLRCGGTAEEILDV
Experiment: UDP-Glo glucosylceramide synthase biochemical assay
Conditions: crude Golgi preparation from A375 cells; C6 ceramide and UDP-glucose substrates; 20 h incubation at room temperature; UDP detected by luminescence
Text: UDP-Glo™ Glucosylceramide Synthase Biochemical Assay
A UDP-Glo™ glucosylceramide synthase biochemical assay was utilized to evaluate the effect of test compounds on the activity of endogenous levels of GCS enzyme contained within Golgi preparations isolated from human A375 malignant melanoma skin cells. The UDP-Glo™ glucosylceramide synthase assay uses UDP-Glucose as a nucleotide-glycosyl donor and ceramide as substrate acceptor molecules. In the reaction, glucosylceramide synthase (GCS) transfers glucose from UDP-Glucose to ceramide. Glucosylceramide and UDP are released as products.
Using Promega's UDP-Glo™ Glycosyltransferase assay kit (Promega Corporation, Madison, WI, USA (Promega)), GCS activity was indirectly measured by detecting the amount of UDP produced. An aliquot of GCS enzyme (1.5 μg crude golgi preparation, total protein) and titrated test compound were aliquoted to each well and incubated for 30 minutes at room temperature. […] An equivalent volume of substrate mixture was then added to each well. Following a 20 h incubation at room temperature to allow for GCS turnover of substrate, an equal volume of UDP detection reagent (Promega) was added to each well and incubated for an additional 75 minutes at room temperature to simultaneously convert the accumulated UDP product into ATP and generate light in a luciferase reaction. The generated light was detected using a luminometer. […] luminescence values (RLUs) were normalized to mean “min” and “max” effects, as determined on each plate. […] Values for % Emax and EC50 were determined by best-fitting the normalized data to a curve in Activity Base along a four-parameter logistic nonlinear regression (4PL) model (based on the Levenberg-Marquardt algorithm and defined by the equation below):
[formula] where: n is 4 PMin (bottom of the curve); m is 4 PMax (top of the curve); i is IP (inflection point of curve); and p is slope. See Levenberg, K., “A Method for the Solution of Certain Problems in Least Squares”, Quart. Appl. Math. […] Math.

Row | EC50 [nM] | Compound
1 | 150 | Cc1nnc(-c2ccc(-c3cccc4c3C(=O)N([C@H](C3CC3)C(C)(C)O)C4)cn2)o1 [Compound 65, (R)-2-(1-cyclopropyl-2-hydroxy-2-methylpropyl)-7-(6-(5-methyl-1,3,4-oxadiazol-2-yl)pyridin-3-yl)isoindolin-1-one]
2 | 88 | CCOc1ncccc1C(=O)Nc1cccc2c1C(=O)N([C@H](C)C(C)(C)O)C2 [Compound 138, (R)-2-ethoxy-N-(2-(3-hydroxy-3-methylbutan-2-yl)-3-oxoisoindolin-4-yl)nicotinamide]
3 | 0.58 | Cc1nn(C)c2ccc(-c3cccc4c3C(=O)N([C@H](C3CC3)C(C)(C)O)C4)cc12 [Compound 86, (R)-2-(1-cyclopropyl-2-hydroxy-2-methylpropyl)-7-(1,3-dimethyl-1H-indazol-5-yl)isoindolin-1-one]
4 | 31 | Cc1nc(-c2cccc(-c3cccc4c3C(=O)N([C@H](C3CC3)C(C)(C)O)C4)c2)no1 [Compound 81, (R)-2-(1-cyclopropyl-2-hydroxy-2-methylpropyl)-7-(3-(5-methyl-1,2,4-oxadiazol-3-yl)phenyl)isoindolin-1-one]
5 | 2.1 | Cn1nc(-c2cccc3c2C(=O)N([C@H](C2CC2)C(C)(C)O)C3)c2ccccc21 [Compound 79, (R)-2-(1-cyclopropyl-2-hydroxy-2-methylpropyl)-7-(1-methyl-1H-indazol-3-yl)isoindolin-1-one]
6 | 0.91 | CC(C)(O)C(C1CC1)N1Cc2ccc(F)c(-c3ccccc3OCC(F)(F)F)c2C1=O (single isomer, unassigned) [Compound 21, 2-((R or S)-1-cyclopropyl-2-hydroxy-2-methylpropyl)-6-fluoro-7-(2-(2,2,2-trifluoroethoxy)phenyl) isoindolin-1-one]
7 | 520 | Cc1ncc(-c2ccc(-c3cccc4c3C(=O)N([C@H](C3CC3)C(C)(C)O)C4)cc2)o1 [Compound 91, 2-[(1R)-1-cyclopropyl-2-hydroxy-2-methyl-propyl]-7-[4-(2-methyloxazol-5-yl)phenyl]isoindolin-1-one]
8 | 420 | CC(C)(O)[C@@H](C1CC1)N1Cc2cccc(-c3cnn(-c4ccncc4)c3)c2C1=O [Compound 89, (R)-2-(1-cyclopropyl-2-hydroxy-2-methylpropyl)-7-(1-(pyridin-4-yl)-1H-pyrazol-4-yl)isoindolin-1-one]
9 | 5.9 | Cc1nnc(-c2ccc(-c3cccc4c3C(=O)N(C(C3CC3)C3(O)COC3)C4)cc2)o1 (single isomer, unassigned) [Compound 51, (R or S)-2-(cyclopropyl(3-hydroxyoxetan-3-yl)methyl)-7-(4-(5-methyl-1,3,4-oxadiazol-2-yl)phenyl)isoindolin-1-one]
10 | 23 | CC(C)(O)C(C1CC1)N1Cc2cccc(NC(=O)c3ccnc4c3CCO4)c2C1=O (single isomer, unassigned) [Compound 162, (R or S)-N-(2-(1-cyclopropyl-2-hydroxy-2-methylpropyl)-3-oxoisoindolin-4-yl)-2,3-dihydrofuro[2,3-b]pyridine-4-carboxamide]
11 | 0.4 | Cc1cnc2c(c1C(=O)Nc1cccc3c1C(=O)N(C(C1CC1)C(C)(C)O)C3)OCO2 (single isomer, unassigned) [Compound 169, (R or S)—N-(2-(1-Cyclopropyl-2-hydroxy-2-methylpropyl)-3-oxoisoindolin-4-yl)-6-methyl-[1,3]dioxolo[4,5-b]pyridine-7-carboxamide]
12 | 53 | Cc1nnc(-c2ccc(-c3cccc4c3C(=O)N([C@H](C3CC3)C(C)(C)O)C4C)cc2)o1 (single isomer, unassigned) [Compound 62, (R or S)-2-((R)-1-Cyclopropyl-2-hydroxy-2-methylpropyl)-3-methyl-7-(4-(5-methyl-1,3,4-oxadiazol-2-yl)phenyl)isoindolin-1-one]
13 | 260 | Cc1nnc(-c2cccc(-c3cccc4c3C(=O)N([C@H](C3CC3)C(C)(C)O)C4)c2)o1 [Compound 13, (R)-2-(1-cyclopropyl-2-hydroxy-2-methylpropyl)-7-(3-(5-methyl-1,3,4-oxadiazol-2-yl)phenyl)isoindolin-1-one]
14 | 0.18 | Cc1nn(C)c2ccc(-c3c(F)ccc4c3C(=O)N([C@H](C3CC3)C(C)(C)O)C4)cc12 [Compound 55, (R)-2-(1-cyclopropyl-2-hydroxy-2-methylpropyl)-7-(1,3-dimethyl-1H-indazol-5-yl)-6-fluoroisoindolin-1-one]
15 | 650 | CCOc1ccccc1C(=O)Nc1cccc2c1C(=O)N(CC1(O)CCC1)C2 [Compound 105, 2-ethoxy-N-(2-((1-hydroxycyclobutyl)methyl)-3-oxoisoindolin-4-yl)benzamide]
16 | 260 | O=C(Nc1cccc2c1C(=O)N(C(C1CC1)C1CC1)C2)c1cccc2c1OCC2 [Compound 145, N-(2-(dicyclopropylmethyl)-3-oxoisoindolin-4-yl)-2,3-dihydrobenzofuran-7-carboxamide]
17 | 0.55 | Cc1nnc(-c2ccc(-c3ccc(Cl)c4c3C(=O)N([C@H](C3CC3)C(C)(C)O)C4)cc2)o1 [Compound 38, (R)-4-chloro-2-(1-cyclopropyl-2-hydroxy-2-methylpropyl)-7-(4-(5-methyl-1,3,4-oxadiazol-2-yl)phenyl)isoindolin-1-one]
18 | 39 | CC(C)(O)[C@@H](C1CC1)N1Cc2cccc(-c3ccc(-c4ncco4)cc3)c2C1=O [Compound 77, (R)-2-(1-cyclopropyl-2-hydroxy-2-methylpropyl)-7-(4-(oxazol-2-yl)phenyl)isoindolin-1-one]
19 | 3.5 | Cc1nnc(-c2ccc(-c3cccc4c3C(=O)N([C@H](C3CC3)C(C)(C)O)C4)c(F)c2)o1 [Compound 68, (R)-2-(1-cyclopropyl-2-hydroxy-2-methylpropyl)-7-(2-fluoro-4-(5-methyl-1,3,4-oxadiazol-2-yl)phenyl)isoindolin-1-one]
20 | 1 | CC(C)(O)C(C1CC1)N1Cc2cccc(NC(=O)c3ccnc4c3CCC4)c2C1=O (single isomer, unassigned) [Compound 158, (R or S)-N-(2-(1-cyclopropyl-2-hydroxy-2-methylpropyl)-3-oxoisoindolin-4-yl)-6,7-dihydro-5H-cyclopenta[b]pyridine-4-carboxamide]
21 | 140 | CCOc1ccccc1C(=O)Nc1cccc2c1C(=O)N([C@H](C)C(C)(C)O)C2 [Compound 99, (R)-2-Ethoxy-N-(2-(3-hydroxy-3-methylbutan-2-yl)-3-oxoisoindolin-4-yl)benzamide]
22 | 360 | O=C(Nc1cccc2c1C(=O)N(CC1(O)CCC1)C2)c1ccnc2c1CCC2 [Compound 166, N-(2-((1-hydroxycyclobutyl)methyl)-3-oxoisoindolin-4-yl)-6,7-dihydro-5H-cyclopenta[b]pyridine-4-carboxamide]
23 | 3.1 | CC(C)(O)C(C1CC1)N1Cc2cccc(NC(=O)c3cccc(F)c3C(F)(F)F)c2C1=O (single isomer, unassigned) [Compound 116, (R or S)-N-(2-(1-cyclopropyl-2-hydroxy-2-methylpropyl)-3-oxoisoindolin-4-yl)-3-fluoro-2-(trifluoromethyl)benzamide]
24 | 46 | CC(C)[C@H](CO)N1Cc2cccc(NC(=O)c3nc(Cl)ccc3C(F)(F)F)c2C1=O [Compound 132, (R)-6-chloro-N-(2-(1-hydroxy-3-methylbutan-2-yl)-3-oxoisoindolin-4-yl)-3-(trifluoromethyl)picolinamide]
25 | 200 | Cn1cc(-c2ccc(-c3nccc4c3C(=O)N([C@H](C3CC3)C(C)(C)O)C4)cc2)cn1 [Compound 29, (R)-2-(1-cyclopropyl-2-hydroxy-2-methylpropyl)-4-(4-(1-methyl-1H-pyrazol-4-yl)phenyl)-1,2-dihydro-3H-pyrrolo[3,4-c]pyridin-3-one]
26 | 27 | Cc1cnc2c(c1/C=C/c1cccc3c1C(=O)N(C(C1CC1)C(C)(C)O)C3)OCO2 (single isomer, unassigned) [Compound 175, (R or S)-(E)-2-(1-Cyclopropyl-2-hydroxy-2-methylpropyl)-7-(2-(6-methyl-[1,3]dioxolo[4,5-b]pyridin-7-yl)vinyl)isoindolin-1-one]

Row | Compound | EC50 [nM]
27 | CCOc1ccccc1C(=O)Nc1cccc2c1C(=O)N(CC1CC3CCN1CC3)C2 (racemic) [Compound 108, 2-Ethoxy-N-(3-oxo-2-(quinuclidin-2-ylmethyl)isoindolin-4-yl)benzamide] | 270
